Test results: PMC4767141, “Discovery of Potent, Orally Bioavailable, Small-Molecule Inhibitors of WNT Signaling from a Cell-Based Pathway Screen” (Journal of Medicinal Chemistry, 2015)

Tests used:
EPHB4 = molecular target: T1, EPHB4 (Homo sapiens, UniProt P54760); assay: Millipore kinase panel; format: biochemical; details: read-out: % Control
T1 construct: purchased Millipore KinaseProfiler (kinases); Cerep (receptors and ion channels)

SRPK2 = molecular target: T2, SRPK2 (Homo sapiens, UniProt P78362); assay: Millipore kinase panel; format: biochemical; details: read-out: % Control
T2 construct: purchased Millipore KinaseProfiler (kinases); Cerep (receptors and ion channels)

ERBB4 = molecular target: T3, ERBB4 (Homo sapiens, UniProt Q15303); assay: Millipore kinase panel; format: biochemical; details: read-out: % Control
T3 construct: purchased Millipore KinaseProfiler (kinases); Cerep (receptors and ion channels)

GCK = molecular target: T4, GCK (Homo sapiens, UniProt Q12851); assay: Millipore kinase panel; format: biochemical; details: read-out: % Control
T4 construct: purchased Millipore KinaseProfiler (kinases); Cerep (receptors and ion channels)
T4 sequence (Q12851 whole entry): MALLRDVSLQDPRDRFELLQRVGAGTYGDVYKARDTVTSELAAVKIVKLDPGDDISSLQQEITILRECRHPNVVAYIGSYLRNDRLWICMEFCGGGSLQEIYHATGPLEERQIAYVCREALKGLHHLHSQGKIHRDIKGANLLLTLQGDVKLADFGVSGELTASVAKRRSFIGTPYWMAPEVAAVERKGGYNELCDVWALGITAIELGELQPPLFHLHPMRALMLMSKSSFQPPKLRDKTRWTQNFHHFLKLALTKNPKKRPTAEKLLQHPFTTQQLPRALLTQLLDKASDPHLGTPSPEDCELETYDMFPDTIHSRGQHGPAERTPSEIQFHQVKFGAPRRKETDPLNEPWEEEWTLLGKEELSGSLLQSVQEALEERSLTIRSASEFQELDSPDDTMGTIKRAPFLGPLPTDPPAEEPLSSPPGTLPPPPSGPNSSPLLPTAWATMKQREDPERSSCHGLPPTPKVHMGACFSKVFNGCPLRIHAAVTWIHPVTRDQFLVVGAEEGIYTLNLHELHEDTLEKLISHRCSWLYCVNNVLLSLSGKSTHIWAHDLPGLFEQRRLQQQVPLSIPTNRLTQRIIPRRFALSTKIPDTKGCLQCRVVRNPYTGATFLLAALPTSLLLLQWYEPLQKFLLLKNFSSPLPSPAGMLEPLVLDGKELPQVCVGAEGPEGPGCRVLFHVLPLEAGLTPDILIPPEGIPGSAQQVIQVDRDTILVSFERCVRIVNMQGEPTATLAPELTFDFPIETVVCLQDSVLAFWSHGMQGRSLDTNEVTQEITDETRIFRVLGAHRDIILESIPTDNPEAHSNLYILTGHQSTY

5-HT1A (h) = molecular target: T5, 5-HT1A (h) (Homo sapiens, UniProt P08908); assay: CEREP binding panel; details: agonist radioligand, read-out: % Inhibition of Control Specific Binding
T5 construct: purchased Millipore KinaseProfiler (kinases); Cerep (receptors and ion channels)

LOK = molecular target: T6, LOK (Homo sapiens, UniProt O94804); assay: Millipore kinase panel; format: biochemical; details: read-out: % Control
T6 construct: purchased Millipore KinaseProfiler (kinases); Cerep (receptors and ion channels)

WNK2 = molecular target: T7, WNK2 (Homo sapiens, UniProt Q9Y3S1); assay: Millipore kinase panel; format: biochemical; details: read-out: % Control
T7 construct: purchased Millipore KinaseProfiler (kinases); Cerep (receptors and ion channels)

PASK = molecular target: T8, PASK (Homo sapiens, UniProt Q96RG2); assay: Millipore kinase panel; format: biochemical; details: read-out: % Control
T8 construct: purchased Millipore KinaseProfiler (kinases); Cerep (receptors and ion channels)

SAPK4 = molecular target: T9, SAPK4 (Homo sapiens, UniProt O15264); assay: Millipore kinase panel; format: biochemical; details: read-out: % Control
T9 construct: purchased Millipore KinaseProfiler (kinases); Cerep (receptors and ion channels)

TEC ACTIVATED = molecular target: T10, TEC ACTIVATED (Homo sapiens, UniProt P42680); assay: Millipore kinase panel; format: biochemical; details: read-out: % Control
T10 construct: purchased Millipore KinaseProfiler (kinases); Cerep (receptors and ion channels)

CK2 = molecular target: T11, CK2 (Homo sapiens, UniProt P68400); assay: Millipore kinase panel; format: biochemical; details: read-out: % Control
T11 construct: purchased Millipore KinaseProfiler (kinases); Cerep (receptors and ion channels)
T11 sequence (P68400 whole entry): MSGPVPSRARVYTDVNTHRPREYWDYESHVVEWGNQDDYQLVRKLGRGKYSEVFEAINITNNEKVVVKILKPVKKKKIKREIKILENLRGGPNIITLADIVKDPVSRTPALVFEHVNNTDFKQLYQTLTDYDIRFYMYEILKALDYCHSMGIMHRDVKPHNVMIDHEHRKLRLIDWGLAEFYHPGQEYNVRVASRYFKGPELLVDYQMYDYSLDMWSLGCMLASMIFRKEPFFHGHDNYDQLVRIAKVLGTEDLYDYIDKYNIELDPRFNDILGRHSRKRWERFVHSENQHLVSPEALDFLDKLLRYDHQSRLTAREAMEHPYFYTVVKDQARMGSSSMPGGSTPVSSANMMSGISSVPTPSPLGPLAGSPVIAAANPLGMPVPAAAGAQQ
T11 sequence (P67870 whole entry partner): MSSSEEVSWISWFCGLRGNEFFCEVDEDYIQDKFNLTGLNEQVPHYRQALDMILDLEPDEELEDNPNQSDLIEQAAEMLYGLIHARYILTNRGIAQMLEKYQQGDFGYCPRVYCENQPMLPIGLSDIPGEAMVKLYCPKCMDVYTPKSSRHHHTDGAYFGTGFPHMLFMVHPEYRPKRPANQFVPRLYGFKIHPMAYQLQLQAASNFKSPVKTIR

CRAF = molecular target: T12, CRAF (Homo sapiens, UniProt P04049); assay: Millipore kinase panel; format: biochemical; details: read-out: % Control
T12 construct: purchased Millipore KinaseProfiler (kinases); Cerep (receptors and ion channels)

FMS = molecular target: T13, FMS (Homo sapiens, UniProt P07333); assay: Millipore kinase panel; format: biochemical; details: read-out: % Control
T13 construct: purchased Millipore KinaseProfiler (kinases); Cerep (receptors and ion channels)

DCAMKL2 = molecular target: T14, DCAMKL2 (Homo sapiens, UniProt Q8N568); assay: Millipore kinase panel; format: biochemical; details: read-out: % Control
T14 construct: purchased Millipore KinaseProfiler (kinases); Cerep (receptors and ion channels)

PKD2 = molecular target: T15, PKD2 (Homo sapiens, UniProt Q9BZL6); assay: Millipore kinase panel; format: biochemical; details: read-out: % Control
T15 construct: purchased Millipore KinaseProfiler (kinases); Cerep (receptors and ion channels)
T15 sequence (Q9BZL6 whole entry): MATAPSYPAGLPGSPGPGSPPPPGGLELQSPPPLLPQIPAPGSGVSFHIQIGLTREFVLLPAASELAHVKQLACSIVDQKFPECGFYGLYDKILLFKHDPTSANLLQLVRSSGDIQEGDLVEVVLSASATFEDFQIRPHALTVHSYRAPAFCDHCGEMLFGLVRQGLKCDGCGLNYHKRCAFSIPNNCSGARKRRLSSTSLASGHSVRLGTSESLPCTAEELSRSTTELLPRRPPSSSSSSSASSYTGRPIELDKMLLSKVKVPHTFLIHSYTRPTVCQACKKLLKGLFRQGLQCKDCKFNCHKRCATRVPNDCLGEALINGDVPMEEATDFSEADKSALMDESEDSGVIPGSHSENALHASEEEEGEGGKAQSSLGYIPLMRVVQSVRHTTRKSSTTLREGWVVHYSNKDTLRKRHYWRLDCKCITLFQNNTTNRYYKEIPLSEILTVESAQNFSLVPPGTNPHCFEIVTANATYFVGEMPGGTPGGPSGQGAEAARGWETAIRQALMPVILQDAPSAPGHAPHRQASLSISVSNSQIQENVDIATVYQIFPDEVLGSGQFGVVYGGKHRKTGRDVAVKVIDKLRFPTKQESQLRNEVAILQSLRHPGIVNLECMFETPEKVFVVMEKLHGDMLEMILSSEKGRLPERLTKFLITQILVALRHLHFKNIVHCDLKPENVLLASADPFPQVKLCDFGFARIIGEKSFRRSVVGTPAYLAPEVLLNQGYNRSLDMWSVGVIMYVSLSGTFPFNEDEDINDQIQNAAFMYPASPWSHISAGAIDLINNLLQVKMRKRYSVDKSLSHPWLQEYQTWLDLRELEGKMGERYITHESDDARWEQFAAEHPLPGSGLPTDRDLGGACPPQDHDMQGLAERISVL

A2A (h) = molecular target: T16, A2A (h) (Homo sapiens, UniProt P29274); assay: CEREP binding panel; details: agonist radioligand, read-out: % Inhibition of Control Specific Binding
T16 construct: purchased Millipore KinaseProfiler (kinases); Cerep (receptors and ion channels)
T16 sequence (P29274 whole entry): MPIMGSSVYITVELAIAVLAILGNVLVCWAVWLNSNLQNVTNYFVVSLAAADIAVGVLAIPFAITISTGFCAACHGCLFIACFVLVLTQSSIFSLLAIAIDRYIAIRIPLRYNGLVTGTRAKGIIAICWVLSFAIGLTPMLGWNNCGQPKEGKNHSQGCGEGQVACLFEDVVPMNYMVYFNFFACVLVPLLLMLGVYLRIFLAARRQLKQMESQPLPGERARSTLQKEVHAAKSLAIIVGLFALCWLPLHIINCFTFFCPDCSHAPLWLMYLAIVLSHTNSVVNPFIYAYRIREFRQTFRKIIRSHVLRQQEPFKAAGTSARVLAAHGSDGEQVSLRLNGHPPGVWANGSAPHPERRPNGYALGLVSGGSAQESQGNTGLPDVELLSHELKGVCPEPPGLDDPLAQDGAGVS

MRCKBETA = molecular target: T17, MRCKBETA (Homo sapiens, UniProt Q9Y5S2); assay: Millipore kinase panel; format: biochemical; details: read-out: % Control
T17 construct: purchased Millipore KinaseProfiler (kinases); Cerep (receptors and ion channels)

MKK7BETA = molecular target: T18, MKK7BETA (Homo sapiens, UniProt O14733); assay: Millipore kinase panel; format: biochemical; details: read-out: % Control
T18 construct: purchased Millipore KinaseProfiler (kinases); Cerep (receptors and ion channels)
T18 sequence (O14733 whole entry): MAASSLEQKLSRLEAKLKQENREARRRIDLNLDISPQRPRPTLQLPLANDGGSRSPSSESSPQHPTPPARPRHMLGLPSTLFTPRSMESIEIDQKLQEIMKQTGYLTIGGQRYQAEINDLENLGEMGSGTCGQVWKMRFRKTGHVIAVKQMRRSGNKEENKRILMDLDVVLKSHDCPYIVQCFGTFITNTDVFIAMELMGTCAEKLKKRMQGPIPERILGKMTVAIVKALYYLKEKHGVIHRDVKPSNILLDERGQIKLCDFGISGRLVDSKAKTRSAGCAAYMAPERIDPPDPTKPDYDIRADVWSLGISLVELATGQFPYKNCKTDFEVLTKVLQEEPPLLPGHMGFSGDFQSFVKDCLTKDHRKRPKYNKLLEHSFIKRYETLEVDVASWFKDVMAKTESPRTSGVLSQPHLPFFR

SAPK2A = molecular target: T19, SAPK2A (Homo sapiens, UniProt Q16539); assay: Millipore kinase panel; format: biochemical; details: read-out: % Control
T19 construct: purchased Millipore KinaseProfiler (kinases); Cerep (receptors and ion channels)

EEF-2K = molecular target: T20, EEF-2K (Homo sapiens, UniProt O00418); assay: Millipore kinase panel; format: biochemical; details: read-out: % Control
T20 construct: purchased Millipore KinaseProfiler (kinases); Cerep (receptors and ion channels)

PKA = molecular target: T21, PKA (Homo sapiens, UniProt P17612); assay: Millipore kinase panel; format: biochemical; details: read-out: % Control
T21 construct: purchased Millipore KinaseProfiler (kinases); Cerep (receptors and ion channels)

BRSK1 = molecular target: T22, BRSK1 (Homo sapiens, UniProt Q8TDC3); assay: Millipore kinase panel; format: biochemical; details: read-out: % Control
T22 construct: purchased Millipore KinaseProfiler (kinases); Cerep (receptors and ion channels)

FES = molecular target: T23, FES (Homo sapiens, UniProt P07332); assay: Millipore kinase panel; format: biochemical; details: read-out: % Control
T23 construct: purchased Millipore KinaseProfiler (kinases); Cerep (receptors and ion channels)

SGK = molecular target: T24, SGK (Homo sapiens, UniProt O00141); assay: Millipore kinase panel; format: biochemical; details: read-out: % Control
T24 construct: purchased Millipore KinaseProfiler (kinases); Cerep (receptors and ion channels)

5-HT2B (h) = molecular target: T25, 5-HT2B (h) (Homo sapiens, UniProt P41595); assay: CEREP binding panel; details: agonist radioligand, read-out: % Inhibition of Control Specific Binding
T25 construct: purchased Millipore KinaseProfiler (kinases); Cerep (receptors and ion channels)

SKCa channel = assay: CEREP binding panel; details: 10 μM, antagonist radioligand
CDK7/CYCLINH/MAT1 = molecular target: T26, CDK7/CYCLINH/MAT1 (Homo sapiens, UniProt P50613); assay: Millipore kinase panel; format: biochemical; details: read-out: % Control
T26 construct: purchased Millipore KinaseProfiler (kinases); Cerep (receptors and ion channels)

IKKBETA = molecular target: T27, IKKBETA (Homo sapiens, UniProt O14920); assay: Millipore kinase panel; format: biochemical; details: read-out: % Control
T27 construct: purchased Millipore KinaseProfiler (kinases); Cerep (receptors and ion channels)

PHKGAMMA2 = molecular target: T28, PHKGAMMA2 (Homo sapiens, UniProt P15735); assay: Millipore kinase panel; format: biochemical; details: read-out: % Control
T28 construct: purchased Millipore KinaseProfiler (kinases); Cerep (receptors and ion channels)

JNK3 = molecular target: T29, JNK3 (Homo sapiens, UniProt P53779); assay: Millipore kinase panel; format: biochemical; details: read-out: % Control
T29 construct: purchased Millipore KinaseProfiler (kinases); Cerep (receptors and ion channels)

PIM-1 = molecular target: T30, PIM-1 (Homo sapiens, UniProt P11309); assay: Millipore kinase panel; format: biochemical; details: read-out: % Control
T30 construct: purchased Millipore KinaseProfiler (kinases); Cerep (receptors and ion channels)

EPHA8 = molecular target: T31, EPHA8 (Homo sapiens, UniProt P29322); assay: Millipore kinase panel; format: biochemical; details: read-out: % Control
T31 construct: purchased Millipore KinaseProfiler (kinases); Cerep (receptors and ion channels)

JAK3 = molecular target: T32, JAK3 (Homo sapiens, UniProt P52333); assay: Millipore kinase panel; format: biochemical; details: read-out: % Control
T32 construct: purchased Millipore KinaseProfiler (kinases); Cerep (receptors and ion channels)
T32 sequence (P52333 whole entry): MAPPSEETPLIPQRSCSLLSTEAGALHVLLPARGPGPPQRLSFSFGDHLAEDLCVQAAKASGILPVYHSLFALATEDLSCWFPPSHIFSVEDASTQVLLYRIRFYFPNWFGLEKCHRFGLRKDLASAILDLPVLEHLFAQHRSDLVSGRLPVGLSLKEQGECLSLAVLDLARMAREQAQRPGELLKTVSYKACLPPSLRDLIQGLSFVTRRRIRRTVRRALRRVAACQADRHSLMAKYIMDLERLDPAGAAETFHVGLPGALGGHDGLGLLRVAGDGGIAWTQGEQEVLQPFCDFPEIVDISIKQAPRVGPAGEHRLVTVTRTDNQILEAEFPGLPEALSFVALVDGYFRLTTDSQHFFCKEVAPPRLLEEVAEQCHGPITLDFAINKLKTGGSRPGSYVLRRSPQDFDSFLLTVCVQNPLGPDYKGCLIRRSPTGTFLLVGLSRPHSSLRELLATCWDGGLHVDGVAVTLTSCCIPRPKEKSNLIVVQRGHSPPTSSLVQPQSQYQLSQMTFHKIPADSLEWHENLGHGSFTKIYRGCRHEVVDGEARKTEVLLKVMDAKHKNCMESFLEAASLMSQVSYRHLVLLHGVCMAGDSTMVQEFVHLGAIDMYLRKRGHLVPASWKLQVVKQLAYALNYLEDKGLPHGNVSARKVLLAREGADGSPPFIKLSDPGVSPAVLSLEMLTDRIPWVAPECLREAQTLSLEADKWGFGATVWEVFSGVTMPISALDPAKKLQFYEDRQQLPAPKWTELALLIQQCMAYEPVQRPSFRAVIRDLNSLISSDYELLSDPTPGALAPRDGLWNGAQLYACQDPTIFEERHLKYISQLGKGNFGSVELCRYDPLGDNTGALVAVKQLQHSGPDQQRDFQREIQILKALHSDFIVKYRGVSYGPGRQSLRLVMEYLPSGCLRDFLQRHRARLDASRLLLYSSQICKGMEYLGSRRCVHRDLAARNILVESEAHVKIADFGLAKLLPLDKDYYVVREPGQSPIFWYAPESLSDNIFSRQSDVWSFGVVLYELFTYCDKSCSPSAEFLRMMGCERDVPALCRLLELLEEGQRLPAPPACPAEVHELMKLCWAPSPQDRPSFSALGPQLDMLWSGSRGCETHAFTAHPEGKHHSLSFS

ALK4 = molecular target: T33, ALK4 (Homo sapiens, UniProt P36896); assay: Millipore kinase panel; format: biochemical; details: read-out: % Control
T33 construct: purchased Millipore KinaseProfiler (kinases); Cerep (receptors and ion channels)

RSK1 = molecular target: T34, RSK1 (Homo sapiens, UniProt Q15418); assay: Millipore kinase panel; format: biochemical; details: read-out: % Control
T34 construct: purchased Millipore KinaseProfiler (kinases); Cerep (receptors and ion channels)

α1 (non-selective) = assay: CEREP binding panel; details: 10 μM, antagonist radioligand
ETA (h) = molecular target: T35, ETA (h) (Homo sapiens, UniProt P25101); assay: CEREP binding panel; details: agonist radioligand, read-out: % Inhibition of Control Specific Binding
T35 construct: purchased Millipore KinaseProfiler (kinases); Cerep (receptors and ion channels)

CLK3 = molecular target: T36, CLK3 (Homo sapiens, UniProt P49761); assay: Millipore kinase panel; format: biochemical; details: read-out: % Control
T36 construct: purchased Millipore KinaseProfiler (kinases); Cerep (receptors and ion channels)

CDK9/CYCLINT1 = molecular target: T37, CDK9/CYCLINT1 (Homo sapiens, UniProt P50750); assay: Millipore kinase panel; format: biochemical; details: read-out: % Control
T37 construct: purchased Millipore KinaseProfiler (kinases); Cerep (receptors and ion channels)

5-HT7 (h) = molecular target: T38, 5-HT7 (h) (Homo sapiens, UniProt P34969); assay: CEREP binding panel; details: agonist radioligand, read-out: % Inhibition of Control Specific Binding
T38 construct: purchased Millipore KinaseProfiler (kinases); Cerep (receptors and ion channels)

CLK2 = molecular target: T39, CLK2 (Homo sapiens, UniProt P49760); assay: Millipore kinase panel; format: biochemical; details: read-out: % Control
T39 construct: purchased Millipore KinaseProfiler (kinases); Cerep (receptors and ion channels)
T39 sequence (P49760 whole entry): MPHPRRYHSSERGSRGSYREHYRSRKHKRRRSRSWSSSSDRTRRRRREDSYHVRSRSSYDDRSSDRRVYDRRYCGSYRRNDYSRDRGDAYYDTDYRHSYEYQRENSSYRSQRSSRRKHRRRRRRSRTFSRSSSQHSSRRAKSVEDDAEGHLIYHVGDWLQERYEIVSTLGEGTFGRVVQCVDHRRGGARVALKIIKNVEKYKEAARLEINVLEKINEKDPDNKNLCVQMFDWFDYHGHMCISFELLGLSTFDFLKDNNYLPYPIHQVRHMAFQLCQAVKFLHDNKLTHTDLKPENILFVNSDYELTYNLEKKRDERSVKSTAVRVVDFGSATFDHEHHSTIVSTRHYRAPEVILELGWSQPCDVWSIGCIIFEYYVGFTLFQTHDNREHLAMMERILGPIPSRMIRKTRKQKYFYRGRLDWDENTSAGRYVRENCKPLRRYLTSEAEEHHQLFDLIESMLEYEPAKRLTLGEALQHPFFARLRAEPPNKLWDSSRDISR

GRK5 = molecular target: T40, GRK5 (Homo sapiens, UniProt P34947); assay: Millipore kinase panel; format: biochemical; details: read-out: % Control
T40 construct: purchased Millipore KinaseProfiler (kinases); Cerep (receptors and ion channels)

FLT4 = molecular target: T41, FLT4 (Homo sapiens, UniProt P35916); assay: Millipore kinase panel; format: biochemical; details: read-out: % Control
T41 construct: purchased Millipore KinaseProfiler (kinases); Cerep (receptors and ion channels)

5-HT transporter (h) = molecular target: T42, 5-HT transporter (h) (Homo sapiens, UniProt P31645); assay: CEREP binding panel; details: antagonist radioligand, read-out: % Inhibition of Control Specific Binding
T42 construct: purchased Millipore KinaseProfiler (kinases); Cerep (receptors and ion channels)

Cn1cc(-c2ccc(-c3cncc(Cl)c3N3CCC4(CCNC4=O)CC3)cc2)cn1 [Compound 74, 8-(3-Chloro-5-(4-(1-methyl-1H-pyrazol-4-yl)phenyl)pyridin-4-yl)-2,8-diazaspiro[4.5]decan-1-one]
remaining activity at 1 µM (EPHB4): 10% | remaining activity at 1 µM (SRPK2): -10% | remaining activity at 1 µM (ERBB4): 0% | remaining activity at 1 µM (GCK): -28% | inhibition at 10 µM (5-HT1A (h)): 19% | remaining activity at 1 µM (LOK): -6% | remaining activity at 1 µM (WNK2): 0% | remaining activity at 1 µM (PASK): 18% | remaining activity at 1 µM (SAPK4): -4% | remaining activity at 1 µM (TEC ACTIVATED): 14% | remaining activity at 1 µM (CK2): -7% | remaining activity at 1 µM (CRAF): 5% | remaining activity at 1 µM (FMS): -21% | remaining activity at 1 µM (DCAMKL2): 1% | remaining activity at 1 µM (PKD2): 7% | inhibition at 10 µM (A2A (h)): 22% | remaining activity at 1 µM (MRCKBETA): -4% | remaining activity at 1 µM (MKK7BETA): 68% | remaining activity at 1 µM (SAPK2A): 1% | remaining activity at 1 µM (EEF-2K): 15% | remaining activity at 1 µM (PKA): 24% | remaining activity at 1 µM (BRSK1): -25% | remaining activity at 1 µM (FES): -14% | remaining activity at 1 µM (SGK): -4% | inhibition at 10 µM (5-HT2B (h)): 6% | % Inhibition of Control Specific Binding (SKCa channel): 3% | remaining activity at 1 µM (CDK7/CYCLINH/MAT1): 4% | remaining activity at 1 µM (IKKBETA): 2% | remaining activity at 1 µM (PHKGAMMA2): 4% | remaining activity at 1 µM (JNK3): -7% | remaining activity at 1 µM (PIM-1): -11% | remaining activity at 1 µM (EPHA8): -7% | remaining activity at 1 µM (JAK3): 0% | remaining activity at 1 µM (ALK4): -12% | remaining activity at 1 µM (RSK1): -23% | % Inhibition of Control Specific Binding (α1 (non-selective)): 8% | inhibition at 10 µM (ETA (h)): -9% | remaining activity at 1 µM (CLK3): -8% | remaining activity at 1 µM (CDK9/CYCLINT1): -29% | inhibition at 10 µM (5-HT7 (h)): 1% | remaining activity at 1 µM (CLK2): -19% | remaining activity at 1 µM (GRK5): -5% | remaining activity at 1 µM (FLT4): -23% | inhibition at 10 µM (5-HT transporter (h)): 70%
